Measurements reported in patent US8962843B2, “1,3,4-oxadiazole and 1,3,4-thiadiazole beta-lactamase inhibitors” (priority 2012, dated 2015).
Counter-ions that a name gives are not always drawn.

How the values were obtained:
[1] = system: bacterial strains that express the class D cephalosporinase OXA-15; assay: Standard BLI potentiation MIC / synergy MIC assays, strains expressing OXA-15; assay type: cell-based, E. coli; conditions: in combination with a β-lactam; comparator Avibactam (CCC)
In short: (§1)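 Broth microdilution in cation-adjusted Mueller Hinton broth per CLSI M07-A9, ~10^5 CFU/mL, 18-20 h at 37 °C with aeration; engineered E. coli carrying β-lactamase plasmids kept on 25 μg/mL tetracycline. β-lactam MIC measured in 2-fold dilutions (128-0.13 μg/mL) with BLI fixed at 4 μg/mL; sMIC titrates BLI against a fixed β-lactam concentration. MIC = lowest concentration without visible turbidity.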

[2] = system: bacterial strains that express KPC β-lactamases; assay: Standard BLI potentiation MIC / synergy MIC assays, strains expressing KPC β-lactamases; assay type: cell-based; conditions: in combination with a β-lactam; comparator Avibactam
In short: as §1

SMILES | activity against bacterial strains that express the class D cephalosporinase OXA-15, compared with Avibactam [1] | activity and/or spectrum of activity against bacterial strains that express KPC β-lactamases, compared with Avibactam [2]
O=C1N2C[C@@H](CC[C@H]2c2nnc(CN[C@@H]3CCNC3)o2)N1OS(=O)(=O)O [Compound 766, (2S,5R)-7-oxo-2-(5-(((R)-pyrrolidin-3-ylamino)methyl)-1,3,4-oxadiazol-2-yl)-1,6-diazabicyclo[3.2.1]octan-6-yl hydrogen sulfate] | more active than Avibactam | more active than Avibactam for at least one, bacterial strain that expresses KPC β-lactamase and/or show a better spectrum of activity
N=C1NCC(c2nnc([C@@H]3CC[C@@H]4CN3C(=O)N4OS(=O)(=O)O)o2)N1 (stereo partly drawn) [Compound 767, (2S,5R)-2-(5-(2-iminoimidazolidin-4-yl)-1,3,4-oxadiazol-2-yl)-7-oxo-1,6-diazabicyclo[3.2.1]octan-6-yl hydrogen sulfate] | more active than Avibactam | more active than Avibactam for at least one, bacterial strain that expresses KPC β-lactamase and/or show a better spectrum of activity
N[C@H]1CC[C@@H](c2nnc([C@@H]3CC[C@@H]4CN3C(=O)N4OS(=O)(=O)O)o2)C1 [Compound 768, (2S,5R)-2-(5-((1R,3S)-3-aminocyclopentyl)-1,3,4-oxadiazol-2-yl)-7-oxo-1,6-diazabicyclo[3.2.1]octan-6-yl hydrogen sulfate] | more active than Avibactam | more active than Avibactam for at least one, bacterial strain that expresses KPC β-lactamase and/or show a better spectrum of activity
O=C1N2C[C@@H](CC[C@H]2c2nnc(CCNC3CCNCC3)o2)N1OS(=O)(=O)O [Compound 770, (2S,5R)-7-oxo-2-(5-(2-(piperidin-4-ylamino)ethyl)-1,3,4-oxadiazol-2-yl)-1,6-diazabicyclo[3.2.1]octan-6-yl hydrogen sulfate] | more active than Avibactam | more active than Avibactam for at least one, bacterial strain that expresses KPC β-lactamase and/or show a better spectrum of activity
O=C1N2C[C@@H](CC[C@H]2c2nnc(CCCNC3CCNCC3)o2)N1OS(=O)(=O)O [Compound 771, (2S,5R)-7-oxo-2-(5-(3-(piperidin-4-ylamino)propyl)-1,3,4-oxadiazol-2-yl)-1,6-diazabicyclo[3.2.1]octan-6-yl hydrogen sulfate] | more active than Avibactam | more active than Avibactam for at least one, bacterial strain that expresses KPC β-lactamase and/or show a better spectrum of activity
O=C1N2C[C@@H](CC[C@H]2c2nnc(CCCCNC3CCNCC3)o2)N1OS(=O)(=O)O [Compound 772, (2S,5R)-7-oxo-2-(5-(4-(piperidin-4-ylamino)butyl)-1,3,4-oxadiazol-2-yl)-1,6-diazabicyclo[3.2.1]octan-6-yl hydrogen sulfate] | more active than Avibactam | more active than Avibactam for at least one, bacterial strain that expresses KPC β-lactamase and/or show a better spectrum of activity
NC1CCN(Cc2nnc([C@@H]3CC[C@@H]4CN3C(=O)N4OS(=O)(=O)O)o2)CC1 [Compound 774, (2S,5R)-2-(5-((4-aminopiperidin-1-yl)methyl)-1,3,4-oxadiazol-2-yl)-7-oxo-1,6-diazabicyclo[3.2.1]octan-6-yl hydrogen sulfate] | more active than Avibactam | more active than Avibactam for at least one, bacterial strain that expresses KPC β-lactamase and/or show a better spectrum of activity
O=C1N2C[C@@H](CC[C@H]2c2nnc(CCN3CCNCC3)o2)N1OS(=O)(=O)O [Compound 776, (2S,5R)-7-oxo-2-(5-(2-(piperazin-1-ybethyl)-1,3,4-oxadiazol-2-yl)-1,6-diazabicyclo[3.2.1]octan-6-yl hydrogen sulfate] | more active than Avibactam | more active than Avibactam for at least one, bacterial strain that expresses KPC β-lactamase and/or show a better spectrum of activity
O=C1N2C[C@@H](CC[C@H]2c2nnc(CN3CCNCC3)o2)N1OS(=O)(=O)O [Compound 777, (2S,5R)-7-oxo-2-(5-(piperazin-1-ylmethyl)-1,3,4-oxadiazol-2-yl)-1,6-diazabicyclo[3.2.1]octan-6-yl hydrogen sulfate] | more active than Avibactam | more active than Avibactam for at least one, bacterial strain that expresses KPC β-lactamase and/or show a better spectrum of activity
O=C1N2C[C@@H](CC[C@H]2c2nnc([C@H]3CNCCN3)o2)N1OS(=O)(=O)O [Compound 779, (2S,5R)-7-oxo-2-(5((R)-piperazin-2-yl)-1,3,4-oxadiazol-2-yl)-1,6-diazabicyclo[3.2.1]octan-6-yl hydrogen sulfate] | more active than Avibactam | more active than Avibactam for at least one, bacterial strain that expresses KPC β-lactamase and/or show a better spectrum of activity
C[n+]1ccc(-c2nnc([C@@H]3CC[C@@H]4CN3C(=O)N4OS(=O)(=O)[O-])o2)cc1 [Compound 782, (2S,5R)-2-(5-(1-methylpyridin-1-ium-4-yl)-1,3,4-oxadiazol-2-yl)-7-oxo-1,6-diazabicyclo[3.2.1]octan-6-yl sulfate] | more active than Avibactam | more active than Avibactam for at least one, bacterial strain that expresses KPC β-lactamase and/or show a better spectrum of activity
N[C@H]1C[C@H](c2nnc([C@@H]3CC[C@@H]4CN3C(=O)N4OS(=O)(=O)O)s2)C1 [Compound 783, (2S,5R)-2-(5-((1r,3S)-3-aminocyclobutyl)-1,3,4-thiadiazol-2-yl)-7-oxo-1,6-diazabicyclo[3.2.1]octan-6-yl hydrogen sulfate] | more active than Avibactam | more active than Avibactam for at least one, bacterial strain that expresses KPC β-lactamase and/or show a better spectrum of activity
N=C(N)N[C@H]1C[C@@H](c2nnc([C@@H]3CC[C@@H]4CN3C(=O)N4OS(=O)(=O)O)s2)C1 [Compound 784, (2S,5R)-2-(5-((1s,3R)-3-guanidinocyclobutyl)-1,3,4-thiadiazol-2-yl)-7-oxo-1,6-diazabicyclo[3.2.1]octan-6-yl hydrogen sulfate] | more active than Avibactam | more active than Avibactam for at least one, bacterial strain that expresses KPC β-lactamase and/or show a better spectrum of activity
N=C(N)NCCc1nnc([C@@H]2CC[C@@H]3CN2C(=O)N3OS(=O)(=O)O)s1 [Compound 794, (2S,5R)-2-(5-(2-guanidinoethyl)-1,3,4-thiadiazol-2-yl)-7-oxo-1,6-diazabicyclo[3.2.1]octan-6-yl hydrogen sulfate] | more active than Avibactam | more active than Avibactam for at least one, bacterial strain that expresses KPC β-lactamase and/or show a better spectrum of activity
N[C@H]1C[C@@H](c2nnc([C@@H]3CC[C@@H]4CN3C(=O)N4OS(=O)(=O)O)s2)C1 [Compound 795, (2S,5R)-2-(5-((1s,3R)-3-aminocyclobutyl)-1,3,4-thiadiazol-2-yl)-7-oxo-1,6-diazabicyclo[3.2.1]octan-6-yl hydrogen sulfate] | more active than Avibactam | more active than Avibactam for at least one, bacterial strain that expresses KPC β-lactamase and/or show a better spectrum of activity
